Measured values taken from US20260199343A1 (Kadmon Corporation, LLC, priority 2022, published 2026).
Structures can show the parent of a compound that is named as a salt.

What was measured:
[1] = test system: MM cell lines (LP1, MM1R, MM1S, OPM2); assay: CellTiter-Glo cell viability, panel of MM cell lines; format: cell-based, human; conditions: 8 days treatment
Experimental: Cell viability was measured by CellTiter-Glo, Luminescent Cell Viability Assay normalized with DMSO.

C-myc protein = assay: Western blot of C-Myc in LP1 cells; format: cell-based, human; conditions: 24 hours of treatment
[2] = cited from earlier work
[3] = HD NK cell viability by DAPI flow cytometry (Example 2); format: cell-based; conditions: human, healthy donor (HD) NK cells purified from PBMCs; high concentrations 25-40 μM, after 4 days of treatment; read-out: reduction of HD NK cells viability
Text: (§1) Healthy donor buffy coats were supplied by EFS Ile de France. Immediately after reception, the qualified buffy coats were put under gentle agitation overnight at room temperature. The following day, peripheral blood mononuclear cells (PBMCs) were isolated by Ficoll (Cytiva #17-1440-02) density gradient centrifugation. Human NK cells were purified from PBMCs with the MACSXpress Whole Blood NK cell isolation kit from Miltenyi Biotec (#130-127-695) by negative selection using manual magnetic labelling and the MACSxpress separator (Miltenyi Biotec #130-098-308). Then, purified NK cells were cultured in RPMI1640 medium supplemented with 10% fetal bovine serum (FBS) (Eurobio #CVFSVF06-01) and 1% of L-Glutamine (Gibco #25030-081). […]
To additionally assess cell viability, DAPI (Miltenyi Biotec, #130-111-570) was added in each well before plate reading by flow cytometry. Samples were then analyzed with the MACSQuant 16 flow cytometer (Miltenyi Biotec). Data were analyzed with FlowJo software using the following strategy shown in FIGS. 3A-3D: (A) MOLP-8 cells excluding debris were gated, followed by gating for single cells (B), from single cells, viable DAPI^neg cells were quantified (C), and from DAPI^neg cells, the expression of CD38 was quantified with FITC fluorochrome (D) and expressed as median of fluorescence intensity (MFI).

MOLP-8 = MOLP-8 viability, belumosudil vs Y27632 (Example 5); format: cell-based, human; conditions: 10-40 μM (belumosudil effect starting at 10 μM), after 4 days of treatment
Experimental: MOLP-8 (DSMZ, #ACC569) were maintained in RPMI1640 complete medium (RPMI1640 supplemented with 20% FBS—Eurobio #CVFSVF06-01 and 1% L-glutamine—Gibco #25030-081), incubated at 37° C. with 5% CO2 before being used.
(§2) Before treatment, MM cells were centrifuged for 5 minutes at 300 g, counted, and resuspended in RPMI1640 complete medium to have 50000 cells/100 μl.
(§3) Compounds and cells were then added to the appropriate wells of a Corning™ 96-Well Clear Ultra Low Attachment Microplate (Corning, #7007) (final volume of each well: 200 μl). […] MOLP-8 or LP-1 or RPMI-8226 or HD NK cells (50000 cells/well) were then added to the appropriate wells. The plate was then centrifuged for 1 minute at 100 g before being placed into an incubator at 37° C. with 5% CO2 for up to 4 days.
After treatment, cells were collected and added to U bottom plates for antibody labelling. […]
(§4) To additionally assess cell viability, DAPI (Miltenyi Biotec, #130-111-570) was added in each well before plate reading by flow cytometry. Samples were then analyzed with the MACSQuant 16 flow cytometer (Miltenyi Biotec).
(§5) Data were analyzed with FlowJo software as shown in FIG. 3: (FIG. 3A) MOLP-8 cells excluding debris was gated, followed by gating for single cells (FIG. 3B). From the single cells, viable DAPI^neg cells were quantified (FIG. 3C).

RPMI-8226 = RPMI-8226 viability, belumosudil vs Y27632 (Example 5); format: cell-based, human; conditions: 10-40 μM (belumosudil effect starting at 10 μM), after 4 days of treatment
Experimental: RPMI-8226 (ATCC, #CCL155) were maintained in RPMI1640 complete medium, incubated at 37° C. with 5% CO2 before being used.
as §2, §3
After treatment, cells were collected and added to U bottom plates for antibody labelling.
Then, cells were centrifuged for 5 minutes at 300 g, the supernatant removed and 200 μl of AutoMACS Running buffer (Miltenyi Biotec, #130-091-221) added to each well. […]
as §4, §5

HD NK cells = assay: HD NK cell viability, belumosudil vs Y27632 (Example 5); format: cell-based, human; conditions: 10-40 μM, after 4 days of treatment
Text: as §1, with “foetal” for “fetal”, “#25030-081). The cells were left to rest overnight at 37° C. with 5% CO2 before being used.” for “#25030-081).”
as §4, §5

MM1S cells = assay: Growth inhibition of MM1S cells (CellTiterGlo / Incucyte confluency); format: cell-based, human; conditions: 5-6 days
Experimental: (§6) On Day 1, the cells were plated at 3,000 cells per well (50 ul) using 384w plate (Costar, 3765) pre-coated with Poly-D-Lysine, spun down at 300 g for 1 min at room temperature and transferred in Incucyte S3 (37° C.; 5% CO2; every 2 h kinetic read). […] Cells were further incubated in Incucyte S3 (Sartorius) for an additional 5-6 days at 37° C., 5% CO2 with the same kinetic readings. At the end, proliferation was measured by added CellTiterGlo (Promega) to assess cell viability or by using Incucyte measuring cell confluency over time. Cell growth was normalized to DMSO (100%) and staurosporine (Sigma; […]) 1 uM (0%)).

LP-1 cells = assay: Growth inhibition of LP-1 cells (CellTiterGlo / Incucyte confluency); format: cell-based, human; conditions: LP1, 5-6 days
Experimental: as §6

[4] = cited from earlier work; remark: listed apart in the source
CD38 = conditions: bone marrow and MM cells of patients after first treatment; cited from earlier work

## Nc1cccc2c1C(=O)N(C1CCC(=O)NC1=O)C2=O (racemic) [pomalidomide, (RS)-4-Amino-2-(2,6-dioxo-piperidin-3-yl)-isoindoline-1,3-dione]
[1]
  growth inhibition of MM cell lines: growth inhibition in all of these MM cell lines except LP1
C-myc protein
  C-myc protein level: very moderate effect
[2]; all pH solutions
  solubility in all pH solutions: about 0.01 mg/mL
[2]; organic solvents
  solubility into organic solvents: limited to low solubility

## CC(C)NC(=O)COc1cccc(-c2nc(Nc3ccc4[nH]ncc4c3)c3ccccc3n2)c1 [Belumosudil mesylate, 2-{3-[4-(1H-indazol-5-ylamino)-2-quinazolinyl]phenoxy}-N-(propan-2-yl) acetamide methanesulfonate (1:1)]
[2]
  solubility in water: practically insoluble in water

## CC(C)NC(=O)COc1cccc(-c2nc(Nc3ccc4[nH]ncc4c3)c3ccccc3n2)c1 [belumosudil, 2-{3-[4-(1H-indazol-5-ylamino)-2-quinazolinyl]phenoxy}-N-(propan-2-yl) acetamide]
[1]; Homo sapiens, 192 h, LP1, MM1R, MM1S, OPM2, normalized with DMSO, read-out: IC50 of MM cell line growth inhibition
  IC50: 1 to 7 µM
[3]
  cytotoxicity at 4 days: ≤ 10%

## C[C@@H](N)[C@H]1CC[C@H](C(=O)Nc2ccncc2)CC1 [Y27632]
MOLP-8
  viability of MOLP-8 (number of cells and % of live cells): does not impact viability
RPMI-8226
  viability of RPMI-8226 (number of cells and % of live cells): does not impact viability
HD NK cells
  HD NK cell viability: neither belumosudil nor Y27632 impact HD NK cell viability

## C[C@@H]1C[C@H]2[C@@H]3CCC4=CC(=O)C=C[C@]4(C)[C@@]3(F)[C@@H](O)C[C@]2(C)[C@@]1(O)C(=O)CO [Dexamethasone, 9-fluoro-11β,17,21-trihydroxy-16α-methylpregna-1,4-diene-3,20-dione]
MM1S cells
  growth inhibition, single agent: single agent growth inhibition activity
LP-1 cells
  growth inhibition, single agent: single agent growth inhibition activity
[2]
  solubility in water: practically insoluble in water
[4]
  stability in air: stable in air

## daratumumab: anti-CD38 antibody
CD38
  CD38 expression: reduced
